Source: PubChem BioAssay (NCI)
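Method: 48-hour compound exposure of cells in 96-well plates, five concentrations, linear interpolation of endpoints. TGI: concentration producing complete growth inhibition.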 Where a SMILES comes first, the peptide text is derived from it. The star is where a group is joined. Boc = CC(C)(C)OC(=O)*

Legend:
Test in all cases: inhibition of tumour cell growth, NCI panel, 48 h
NCI/ADR-RES ovarian = tested on: NCI/ADR-RES ovarian
SK-MEL-2 melanoma = tested on: SK-MEL-2 melanoma
CAKI-1 renal = tested on: CAKI-1 renal
SN12C renal = tested on: SN12C renal
HOP-62 NSCLC = tested on: HOP-62 NSCLC
SNB-19 CNS = tested on: SNB-19 CNS
SF-268 CNS = tested on: SF-268 CNS
ACHN renal = tested on: ACHN renal
M14 melanoma = tested on: M14 melanoma
DU-145 prostate = tested on: DU-145 prostate

| Compound | TGI (NCI/ADR-RES ovarian) | TGI (SK-MEL-2 melanoma) | TGI (CAKI-1 renal) | TGI (SN12C renal) | TGI (HOP-62 NSCLC) | TGI (SNB-19 CNS) | TGI (SF-268 CNS) | TGI (ACHN renal) | TGI (M14 melanoma) | TGI (DU-145 prostate) |
| --- | --- | --- | --- | --- | --- | --- | --- | --- | --- | --- |
| O=S(=O)(CCBr)CCBr | 5.02 µM | 26 µM | 16.4 µM | 21.8 µM | 43.1 µM | 35 µM | 16.1 µM | – | – | – |
| COc1cc2c(cc1OC)C(C(CO)CO)N(CC(O)CCl)CC2 (configuration not stated) | – | > 100 µM | > 100 µM | – | > 100 µM | > 100 µM | > 100 µM | > 100 µM | > 100 µM | – |
| CCOC(=O)c1cc(-c2cc(OC)c(OC)c([N+](=O)[O-])c2)c([N+](=O)[O-])n1C | > 10 µM | > 10 µM | – | > 10 µM | – | > 10 µM | > 10 µM | > 10 µM | > 10 µM | – |
| N#CC1=C(N)n2c(s/c(=C\c3ccc(Cl)cc3)c2=O)=C(c2nc3ccccc3[nH]2)C1c1ccc(Cl)cc1 (configuration not stated) | – | 4.21 µM | 10.7 µM | 4.6 µM | 4.68 µM | > 100 µM | 7.11 µM | 5.26 µM | 11.5 µM | – |
| CC(=O)OCCOCn1c2c(c(=S)[nH]c1=O)CCC2 | – | > 100 µM | > 100 µM | > 100 µM | > 100 µM | > 100 µM | > 100 µM | > 100 µM | > 100 µM | > 100 µM |
| COC(=O)/C=C\n1c(C)cc(=O)[nH]c1=O | > 100 µM | > 100 µM | – | > 100 µM | > 100 µM | > 100 µM | > 100 µM | > 100 µM | > 100 µM | – |
| O=C(/N=C/c1c(O)c2ccccc2oc1=O)Nc1ccccc1 | – | 80.4 µM | 55.3 µM | > 100 µM | – | > 100 µM | > 100 µM | > 100 µM | > 100 µM | – |
| Cc1c(Cl)c2ccccc2n1S(=O)(=O)c1ccccc1 | – | > 100 µM | > 100 µM | – | > 100 µM | > 100 µM | > 100 µM | > 100 µM | > 100 µM | – |
| COc1ccc(-c2cc(=O)c3cc4c(cc3[nH]2)OCO4)cc1OC | – | > 100 µM | > 100 µM | > 100 µM | > 100 µM | > 100 µM | > 100 µM | > 100 µM | > 100 µM | – |
| CN(C)c1ccc(C(=C(c2ccc(N(C)C)cc2)c2ccc(N(C)C)cc2)c2ccc(N(C)C)cc2)cc1 | – | 28.5 µM | 28 µM | 35.2 µM | > 100 µM | 29.4 µM | 56.4 µM | 24.6 µM | 22 µM | – |
| NC(CCCC(N)P(=O)(O)c1ccccc1)P(=O)(O)c1ccccc1 (configuration not stated) | – | > 261 µM | – | > 261 µM | > 261 µM | > 261 µM | > 261 µM | > 261 µM | > 261 µM | – |
| Cc1cccc2c(=O)c([Se]c3coc4c(C)cccc4c3=O)coc12 | – | 33.5 µM | 48.4 µM | 37.9 µM | 32.9 µM | 47.4 µM | 36.8 µM | 38.3 µM | 30.3 µM | – |
| COC(=O)C(Cc1c[nH]c2ccccc12)NC(=O)C(Cc1c[nH]c2ccccc12)NC(=O)C(Cc1c[nH]c2ccccc12)NC(=O)C(Cc1c[nH]c2ccccc12)NC(=O)C(Cc1c[nH]c2ccccc12)NC(=O)C(Cc1c[nH]c2ccccc12)NC(=O)OC(C)(C)C (configuration not stated) (Boc-WWWWWW-OMe; configuration not given here) | – | > 100 µM | > 100 µM | > 100 µM | > 100 µM | > 100 µM | > 100 µM | > 100 µM | – | > 100 µM |
| O=C(c1ccc(Cl)cc1)c1ccc(OCCCOc2ccc(C(=O)c3ccc(Cl)cc3)cc2)cc1 | – | > 100 µM | > 100 µM | > 100 µM | > 100 µM | > 100 µM | > 100 µM | > 100 µM | > 100 µM | – |
| O=C1c2ccc(O)cc2C(=O)c2ccc(O)cc21 | – | > 100 µM | > 100 µM | > 100 µM | > 100 µM | > 100 µM | > 100 µM | > 100 µM | > 100 µM | – |
| COc1cc(C2c3cc4c(cc3[C@@H](Nc3ccccc3)C3COC[C@H]23)OCO4)cc(OC)c1O (some centres not stated) | > 100 µM | – | – | 54.3 µM | > 100 µM | > 100 µM | > 100 µM | 3.82 µM | > 100 µM | – |
| C[n+]1c(-c2ccc(/C=N/NC(=N)N/N=C/c3ccc(-c4cn5cc(Cl)ccc5[n+]4C)cc3)cc2)cn2cc(Cl)ccc21 | > 100 µM | – | – | > 100 µM | > 100 µM | > 100 µM | > 100 µM | > 100 µM | > 100 µM | – |
| C[C@]12CCC(=O)C=C1CC[C@@H]1[C@@H]2[C@@H](O)C[C@@]2(C)[C@H]1CC[C@]2(O)C(=O)COC(=O)COCC(=O)O | – | > 100 µM | > 100 µM | > 100 µM | > 100 µM | > 100 µM | > 100 µM | > 100 µM | > 100 µM | – |
